According to US20230233569A1 (Revolution Medicines, Inc., priority 2020, published 2023):
Where two headings read alike, the source gives them in different places.

Key:
Assay in all cases: Ras-Raf disruption / FRET / MOA assay (BRAF RBD)
Assay type in all cases: biochemical
KRAS G12C = KRAS G12C (Homo sapiens, UniProt P01116+P62937, G12C); details: with Cyclophilin A
In short: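 TR-FRET read-out after 1.5 h with anti-His Eu-W1024 (10 nM) and anti-GST APC (50 nM), following 3 h at 25 °C of compound (top 30 μM, 3-fold, 10 points) with 25 μM Cyclophilin A, 12.5 nM GMPPNP-loaded K-Ras G12C and 50 nM BRAF RBD; IC50 reported.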

KRAS G13C = KRAS G13C (Homo sapiens, UniProt P01116+P62937, G13C); details: with Cyclophilin A
Text: (§1) Disruption of […] Ras-binding Domain (BRAF^RBD) Interaction with K-Ras by Compounds of the Invention (also Called a FRET Assay or an MOA Assay)
(§2) Note—The following protocol describes a procedure for monitoring disruption of K-Ras G12C (GMP-PNP) binding to BRAF^RBD by a compound of the invention. This protocol may also be executed substituting other Ras proteins or nucleotides, such as K-Ras G12D and K-Ras G13D.
(§3) The purpose of this biochemical assay was to measure the ability of test compounds to facilitate ternary complex formation between a nucleotide-loaded K-Ras isoform and Cyclophilin A; the resulting ternary complex disrupts binding to a BRAF^RBD construct, inhibiting K-Ras signaling through a RAF effector. Data is reported as IC50 values.
(§4) In assay buffer containing 25 mM HEPES pH 7.3, 0.002% Tween20, 0.1% BSA, 100 mM NaCl and 5 mM MgCl2, tagless Cyclophilin A, His6-K-Ras-GMPPNP, and GST-BRAF^RBD were combined in a 384-well assay plate at final concentrations of 25 μM, 12.5 nM, and 50 nM, respectively. Compound was present in plate wells as a 10-point 3-fold dilution series starting at a final concentration of 30 μM. After incubation at 25° C. for 3 hours, a mixture of anti-His Eu-W1024 and anti-GST allophycocyanin was then added to assay sample wells at final concentrations of 10 nM and 50 nM, respectively, and the reaction incubated for an additional 1.5 hours. […] Compounds that facilitate disruption of a K-Ras:RAF complex were identified as those eliciting a decrease in the TR-FRET ratio relative to DMSO control wells.

KRAS G12V = KRAS G12V (Homo sapiens, UniProt P01116+P62937, G12V); details: with Cyclophilin A
Text: as §1, §2, §3, §4

KRAS G12D = KRAS G12D (Homo sapiens, UniProt P01116+P62937, G12D); details: with Cyclophilin A
Text: as §1, §2, §3, §4

KRAS G13D = KRAS G13D (Homo sapiens, UniProt P01116+P62937, G13D); details: with Cyclophilin A
Text: as §1, §2, §3, §4

NRAS G12C = NRAS G12C (Homo sapiens, UniProt P01111+P62937, G12C)
Text: as §1, §2, §3, §4

KRAS WT = KRAS WT (Homo sapiens, UniProt P01116+P62937); details: with Cyclophilin A
Text: as §1, §2, §3, §4

KRAS G12S = KRAS G12S (Homo sapiens, UniProt P01116+P62937, G12S); details: with Cyclophilin A
Text: as §1, §2, §3, §4

[1] = KRAS G12C FRET data IC50, Ras-Raf disruption
[2] = KRAS G13C FRET data IC50, Ras-Raf disruption
[3] = KRAS G12V FRET data IC50, Ras-Raf disruption
[4] = KRAS G12D FRET data IC50, Ras-Raf disruption
[5] = KRAS G13D FRET data IC50, Ras-Raf disruption
[6] = NRAS G12C FRET data IC50, NRAS G12C
[7] = KRAS WT FRET data IC50, Ras-Raf disruption
[8] = KRAS G12S FRET data IC50, Ras-Raf disruption
[9] = Ras-Raf disruption, read-out: KRAS G12C FRET data IC50
[10] = Ras-Raf disruption, read-out: KRAS G13C FRET data IC50
[11] = Ras-Raf disruption, read-out: KRAS G12V FRET data IC50
[12] = Ras-Raf disruption, read-out: KRAS G12D FRET data IC50
[13] = Ras-Raf disruption, read-out: KRAS G13D FRET data IC50
[14] = NRAS G12C, read-out: NRAS G12C FRET data IC50
[15] = Ras-Raf disruption, read-out: KRAS WT FRET data IC50
[16] = Ras-Raf disruption, read-out: KRAS G12S FRET data IC50

KRAS WT, sequence (P01116 1-169 isoform P01116-2 limits assumed): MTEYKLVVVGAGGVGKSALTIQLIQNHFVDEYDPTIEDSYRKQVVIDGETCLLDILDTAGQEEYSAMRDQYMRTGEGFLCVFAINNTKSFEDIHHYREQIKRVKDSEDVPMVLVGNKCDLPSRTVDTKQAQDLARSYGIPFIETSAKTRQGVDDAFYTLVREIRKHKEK
KRAS WT, sequence (P62937 whole entry): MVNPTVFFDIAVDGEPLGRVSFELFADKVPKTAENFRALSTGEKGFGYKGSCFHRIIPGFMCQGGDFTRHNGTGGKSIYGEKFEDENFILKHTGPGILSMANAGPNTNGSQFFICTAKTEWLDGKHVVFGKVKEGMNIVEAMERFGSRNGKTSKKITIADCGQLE
NRAS G12C, sequence (P01111 whole entry G12C): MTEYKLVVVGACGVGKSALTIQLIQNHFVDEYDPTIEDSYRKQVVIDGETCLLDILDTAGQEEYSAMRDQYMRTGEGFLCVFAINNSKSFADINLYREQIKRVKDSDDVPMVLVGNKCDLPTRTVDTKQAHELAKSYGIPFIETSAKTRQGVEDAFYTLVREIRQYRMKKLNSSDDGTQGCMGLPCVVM
NRAS G12C, sequence (P62937 whole entry): as the sequence (P62937 whole entry) above
KRAS G12S, sequence (P01116 1-169 isoform P01116-2 G12S limits assumed): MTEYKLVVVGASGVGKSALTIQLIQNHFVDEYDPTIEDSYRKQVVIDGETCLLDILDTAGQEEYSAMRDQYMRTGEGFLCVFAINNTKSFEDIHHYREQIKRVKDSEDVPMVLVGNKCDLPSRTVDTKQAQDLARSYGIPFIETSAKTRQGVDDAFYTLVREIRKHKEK
KRAS G12S, sequence (P62937 whole entry): as the sequence (P62937 whole entry) above
KRAS G12D, sequence (P01116 1-169 isoform P01116-2 G12D limits assumed): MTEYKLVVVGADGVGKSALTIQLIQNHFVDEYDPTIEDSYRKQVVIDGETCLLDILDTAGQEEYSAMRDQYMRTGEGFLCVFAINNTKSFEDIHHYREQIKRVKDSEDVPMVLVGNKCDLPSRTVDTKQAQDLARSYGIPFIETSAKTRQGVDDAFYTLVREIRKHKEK
KRAS G12D, sequence (P62937 whole entry): as the sequence (P62937 whole entry) above
KRAS G13D, sequence (P01116 1-169 isoform P01116-2 G13D limits assumed): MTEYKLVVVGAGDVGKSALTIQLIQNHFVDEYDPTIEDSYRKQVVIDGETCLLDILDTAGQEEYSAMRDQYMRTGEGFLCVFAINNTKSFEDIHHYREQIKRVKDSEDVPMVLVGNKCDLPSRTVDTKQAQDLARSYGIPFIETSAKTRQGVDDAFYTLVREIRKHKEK
KRAS G13D, sequence (P62937 whole entry): as the sequence (P62937 whole entry) above
KRAS G12C, sequence (P01116 1-169 isoform P01116-2 G12C limits assumed): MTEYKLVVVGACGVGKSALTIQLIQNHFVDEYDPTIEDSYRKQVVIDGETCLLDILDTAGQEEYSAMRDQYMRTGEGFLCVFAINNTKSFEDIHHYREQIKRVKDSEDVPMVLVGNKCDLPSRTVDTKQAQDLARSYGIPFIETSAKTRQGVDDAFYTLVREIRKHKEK
KRAS G12C, sequence (P62937 whole entry): as the sequence (P62937 whole entry) above
KRAS G12V, sequence (P01116 1-169 isoform P01116-2 G12V limits assumed): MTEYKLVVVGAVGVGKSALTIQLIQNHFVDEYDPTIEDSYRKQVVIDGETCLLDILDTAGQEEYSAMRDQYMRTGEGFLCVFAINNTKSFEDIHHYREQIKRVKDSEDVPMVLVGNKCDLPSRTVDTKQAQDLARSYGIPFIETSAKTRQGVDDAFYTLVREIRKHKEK
KRAS G12V, sequence (P62937 whole entry): as the sequence (P62937 whole entry) above
KRAS G13C, sequence (P01116 1-169 isoform P01116-2 G13C limits assumed): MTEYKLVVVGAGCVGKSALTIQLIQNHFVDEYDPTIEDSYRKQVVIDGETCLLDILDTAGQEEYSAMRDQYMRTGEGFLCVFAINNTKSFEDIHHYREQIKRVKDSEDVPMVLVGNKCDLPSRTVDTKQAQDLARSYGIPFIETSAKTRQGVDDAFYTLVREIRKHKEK
KRAS G13C, sequence (P62937 whole entry, the tested form may be a part): as the sequence (P62937 whole entry) above

Structure (SMILES)	IC50 (KRAS G12C; [1]) [nM]	IC50 (KRAS G13C; [2]) [nM]	IC50 (KRAS G12V; [3]) [nM]	IC50 (KRAS G12D; [4]) [nM]	IC50 (KRAS G13D; [5]) [nM]	IC50 (NRAS G12C; [6]) [nM]	IC50 (KRAS WT; [7]) [nM]	IC50 (KRAS G12S; [8]) [nM]	IC50 (KRAS G12C; [9]) [nM]	IC50 (KRAS G13C; [10]) [nM]	IC50 (KRAS G12V; [11]) [nM]	IC50 (KRAS G12D; [12]) [nM]	IC50 (KRAS G13D; [13]) [nM]	IC50 (NRAS G12C; [14]) [nM]	IC50 (KRAS WT; [15]) [nM]	IC50 (KRAS G12S; [16]) [nM]
CCn1c(-c2cccnc2[C@H](C)OC)c2c3cc(ccc31)-c1cc(O)cc(c1)C[C@H](NC(=O)[C@H](C(C)C)N1CC[C@@H](NC(=O)[C@@H]3CN3)C1=O)C(=O)N1CCC[C@H](N1)C(=O)OCC(C)(C)C2 [Example 129]	10 to 100	< 10	100 to 1000	100 to 1000	10 to 100	10 to 100	10 to 100	10 to 100	–	–	–	–	–	–	–	–
CCn1c(-c2cccnc2[C@H](C)OC)c2c3cc(ccc31)-c1cc(O)cc(c1)C[C@H](NC(=O)[C@H](C(C)C)N(C)C(=O)c1ccc([C@H]3CN3)cc1)C(=O)N1CCC[C@H](N1)C(=O)OCC(C)(C)C2 [Example 145]	–	–	–	–	–	–	–	–	100 to 1000	10 to 100	100 to 1000	1000 to 10000	100 to 1000	100 to 1000	100 to 1000	100 to 1000
CCn1c(-c2cccnc2[C@H](C)OC)c2c3cc(ccc31)-c1cc(O)cc(c1)C[C@H](NC(=O)[C@H](C(C)C)N(C)C(=O)[C@H]1CCN(S(=O)(=O)[C@@H]3CN3C)C1)C(=O)N1CCC[C@H](N1)C(=O)OCC(C)(C)C2 (single isomer, unassigned) [Example 56]	–	–	–	–	–	–	–	–	10 to 100	10 to 100	100 to 1000	100 to 1000	100 to 1000	100 to 1000	100 to 1000	100 to 1000
CCn1c(-c2cccnc2[C@H](C)OC)c2c3cc(ccc31)-c1cc(O)cc(c1)C[C@H](NC(=O)[C@H](C(C)C)N1CC[C@@]3(CCN(C(=O)[C@@H]4N[C@@H]4C4CC4)C3)C1=O)C(=O)N1CCC[C@H](N1)C(=O)OCC(C)(C)C2 [Example 128]	–	–	–	–	–	–	–	–	10 to 100	10 to 100	100 to 1000	100 to 1000	100 to 1000	10 to 100	100 to 1000	100 to 1000
CCn1c(-c2cnccc2COC)c2c3cc(ccc31)-c1cccc(c1)C[C@H](NC(=O)[C@H](C(C)C)N(C)C(=O)CCN=C=NCc1c(OC)cccc1OC)C(=O)N1CCC[C@H](N1)C(=O)OCC(C)(C)C2 [62 A and B]	–	–	–	–	–	–	–	–	1000 to 10000	1000 to 10000	> 10000	1000 to 10000	1000 to 10000	1000 to 10000	1000 to 10000	1000 to 10000
CCn1c(-c2cccnc2[C@H](C)OC)c2c3cc(ccc31)-c1cc(O)cc(c1)C[C@H](NC(=O)[C@H](C(C)C)N(C)C(=O)c1ccc([C@@H]3CN3)cc1)C(=O)N1CCC[C@H](N1)C(=O)OCC(C)(C)C2 [Example 131]	–	–	–	–	–	–	–	–	10 to 100	10 to 100	100 to 1000	100 to 1000	100 to 1000	10 to 100	100 to 1000	100 to 1000
CCn1c(-c2cccnc2[C@H](C)OC)c2c3cc(ccc31)-c1cc(O)cc(c1)C[C@H](NC(=O)[C@H](C(C)C)N(C)C(=O)N1CCCN(C(=O)[C@@H]3CN3)CC1)C(=O)N1CCC[C@H](N1)C(=O)OCC(C)(C)C2 [Example 173]	–	–	–	–	–	–	–	–	10 to 100	10 to 100	10 to 100	10 to 100	10 to 100	10 to 100	10 to 100	10 to 100
CCn1c(-c2cccnc2[C@H](C)OC)c2c3cc(ccc31)-c1cccc(c1)C[C@H](NC(=O)[C@H](C(C)C)N(C)C(=O)CCN=C=NCc1ccccc1OC)C(=O)N1CCC[C@H](N1)C(=O)OCC(C)(C)C2 [Example 73]	–	–	–	–	–	–	–	–	10 to 100	1000 to 10000	> 10000	100 to 1000	1000 to 10000	10 to 100	1000 to 10000	1000 to 10000
CCn1c(-c2cccnc2[C@H](C)OC)c2c3cc(ccc31)-c1cc(O)cc(c1)C[C@H](NC(=O)[C@H](C(C)C)N(C)C(=O)CN(C)C(=O)[C@H]1CN1)C(=O)N1CCC[C@H](N1)C(=O)OCC(C)(C)C2 (single isomer, unassigned) [Example 42B]	100 to 1000	100 to 1000	1000 to 10000	1000 to 10000	1000 to 10000	100 to 1000	1000 to 10000	1000 to 10000	–	–	–	–	–	–	–	–
CCn1c(-c2cccnc2[C@H](C)OC)c2c3cc(ccc31)-c1cc(O)cc(c1)C[C@H](NC(=O)[C@H](C(C)C)N(C)C(=O)c1ccc([C@@H]3CN3)nc1)C(=O)N1CCC[C@H](N1)C(=O)OCC(C)(C)C2 [Example 87]	–	–	–	–	–	–	–	–	10 to 100	10 to 100	100 to 1000	1000 to 10000	100 to 1000	10 to 100	100 to 1000	100 to 1000
CCn1c(-c2cccnc2[C@H](C)OC)c2c3cc(ccc31)-c1cc(O)cc(c1)C[C@H](NC(=O)[C@H](C(C)C)N(C)C(=O)[C@@H]1CCN(C(=O)[C@@H]3CN3)C1)C(=O)N1CCC[C@H](N1)C(=O)OCC(C)(C)C2 [Example 172]	–	–	–	–	–	–	–	–	10 to 100	10 to 100	10 to 100	100 to 1000	10 to 100	10 to 100	10 to 100	10 to 100
CCn1c(-c2cccnc2[C@H](C)OC)c2c3cc(ccc31)-c1cc(O)cc(c1)C[C@H](NC(=O)[C@H](C(C)C)N(C)C(=O)[C@H]1C[C@H](NC(=O)[C@H]3CN3)C1)C(=O)N1CCC[C@H](N1)C(=O)OCC(C)(C)C2 [Example 182]	–	–	–	–	–	–	–	–	10 to 100	< 10	10 to 100	100 to 1000	10 to 100	10 to 100	10 to 100	10 to 100
CCn1c(-c2cccnc2[C@H](C)OC)c2c3cc(ccc31)-c1cccc(c1)C[C@H](NC(=O)[C@H](C(C)C)N(C)C(=O)[C@H]1CC[C@H](N=C=NC(C)C)C1)C(=O)N1CCC[C@H](N1)C(=O)OCC(C)(C)C2 [Example 124]	–	–	–	–	–	–	–	–	10 to 100	10 to 100	1000 to 10000	1000 to 10000	> 10000	10 to 100	1000 to 10000	> 10000
CCn1c(-c2cccnc2[C@H](C)OC)c2c3cc(ccc31)-c1cc(O)cc(c1)C[C@H](NC(=O)[C@H](C(C)C)N(C)C(=O)C1CC3(C1)CN(C(=O)[C@@H]1CN1)C3)C(=O)N1CCC[C@H](N1)C(=O)OCC(C)(C)C2 [Example 180]	–	–	–	–	–	–	–	–	100 to 1000	10 to 100	100 to 1000	1000 to 10000	100 to 1000	100 to 1000	100 to 1000	100 to 1000
CCn1c(-c2cccnc2[C@H](C)OC)c2c3cc(ccc31)-c1cc(O)cc(c1)C[C@H](NC(=O)[C@H](C(C)C)N(C)C(=O)N1CCN(C(=O)[C@H]3CN3)CC1=O)C(=O)N1CCC[C@H](N1)C(=O)OCC(C)(C)C2 (atropisomer, axis not shown) [Example 183]	–	–	–	–	–	–	–	–	< 10	10 to 100	100 to 1000	1000 to 10000	100 to 1000	10 to 100	10 to 100	100 to 1000
